{"source": "patent US9308268B2", "about": "“Solubilized benzoyl peroxyde acne” (TRANSDERMAL CORP, priority 2005, dated 2016)", "key": {"[1]": {"assay": "Solubility of benzoyl peroxide", "type": "physicochemical", "details": "by weight of the solubilized benzoyl peroxide topical formulation", "description": "Benzoyl peroxide is a crystalline solid with a melting point of 103° C. to 106° C., and is insoluble in water.\nBenzoyl peroxide is soluble in organic solvents, but most organic solvents are toxic and therefore not suitable for pharmaceutical/cosmetic use. Polar organic solvents such as acetone and ethanol are less toxic, but the flammability of these solvents as well as the ability of these solvents to irritate and strip the skin of its protective mantle limit their use in pharmaceutical or cosmetic compositions.\nIn contrast to prior art formulations of benzoyl peroxide, the benzoyl peroxide will actively go into solution at levels as high as 10% by weigh of the solubilized benzyl peroxide topical formulation. Furthermore, the solubilized benzoyl peroxide topical formulation is translucent and has increased efficacy."}, "[2]": {"details": "cited from earlier work"}}}
{"smiles": "O=C(OOC(=O)c1ccccc1)c1ccccc1", "note": "[Benzoyl peroxide]", "values": [{"measurement": "level at which benzoyl peroxide goes into solution", "setting": "[1]", "result": "≤ 10", "unit": "%"}, {"measurement": "solubility in organic solvents", "setting": "[2]; organic solvents", "result": "soluble"}, {"measurement": "solubility in water", "setting": "[2]; water", "result": "insoluble"}]}
